The source of these data is PubChem BioAssay AID857 (Vanderbilt High Throughput Screening Facility, 2007).

Molecules are shown by their SMILES. Activity calls are given as the source filed them.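 Rule for the calls: active = a full or partial dose-response curve in at least two of three replicate runs; inactive = the rest.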

The experiment deals with D(1B) dopamine receptor (Homo sapiens) (UniProt P21918). Put plainly: D5 receptor allosteric modulators, concentration-response – cell-based, HEK293, CRE-luciferase, luminescence, EC30 dopamine, selectivity assay for D1 allosteric modulator project, dose response (AID 857).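 Note: HEK 293 cells expressing human D5 with a CRE-driven luciferase reporter.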
D(1B) dopamine receptor (Homo sapiens), sequence (P21918 whole entry, looked up): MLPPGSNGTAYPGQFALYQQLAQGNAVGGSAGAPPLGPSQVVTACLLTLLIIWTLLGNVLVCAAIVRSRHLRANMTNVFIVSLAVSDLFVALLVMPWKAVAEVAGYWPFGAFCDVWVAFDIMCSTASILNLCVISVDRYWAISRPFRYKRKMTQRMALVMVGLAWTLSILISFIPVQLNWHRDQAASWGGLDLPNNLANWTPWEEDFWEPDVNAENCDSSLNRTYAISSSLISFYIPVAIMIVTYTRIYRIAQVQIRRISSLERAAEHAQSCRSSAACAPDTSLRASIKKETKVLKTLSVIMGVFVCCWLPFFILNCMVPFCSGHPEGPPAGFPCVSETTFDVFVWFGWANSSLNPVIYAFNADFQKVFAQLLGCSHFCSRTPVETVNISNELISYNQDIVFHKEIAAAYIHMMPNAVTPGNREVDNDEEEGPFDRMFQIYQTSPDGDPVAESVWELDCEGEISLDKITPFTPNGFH
`Cc1ccc(S(=O)(=O)N2CCN(C(=O)COC(=O)c3cc(C)oc3C)CC2)cc1`: the result was inactive. On the same count and under the same terms, in the case of `Nc1nonc1-n1nnc(C(=O)c2ccccc2)c1-c1ccccc1` it was “inactive”; in that of `c1ccc(COc2nsnc2N2CCOCC2)cc1`, “inactive”; in that of `C=CCNC(=O)C1CC(c2cccc(OC)c2)=NO1` (configuration not stated), “inactive”. Regarding `Cc1ccc(OCCN2C(=O)OC(C)(C)C2(C)O)cc1` (configuration not stated), the result was inactive.

Take `CCOC(=O)NCCc1ccc(OC)cc1`: the outcome was inactive. Still for that read-out and setting: in the case of `O=C1C(Cl)=C(NCC2CCCO2)C(=O)N1C1CCCCC1` (configuration not stated) it was “inactive”; in that of `C/C(CCc1oc2ccccc2c1-c1ccc(C)o1)=N/O`, “inactive”; in that of `Cc1oc2ccc(OCC(N)=O)cc2c1C(=O)OC(C)C`, “inactive”. On the same count and under the same terms, in the case of `Cc1cc(N)n(-c2nc(-c3cccnc3)nc3ccccc23)n1` it was “inactive”; in that of `Cc1[nH]nc2c1C(c1ccc(F)cc1)C1=C(CC(C)(C)CC1=O)N2` (configuration not stated), “inactive”.

For the compound `CCOC(=O)c1c(-c2cccs2)csc1NC(=O)CSc1ncn[nH]1`, the outcome was inactive. Same read-out and setting: next, `Cc1ccc(-n2c(=O)cc(N3CC(C)CC(C)C3)[nH]c2=O)cc1` (configuration not stated): “inactive”; `Cc1ccc(Cn2c(-n3nc(C)cc3C)nc3c2c(=O)[nH]c(=O)n3C)cc1`: “inactive”; `O=c1cc(-c2ccccc2)c2c([nH]1)CCCC2`: “inactive”. Regarding `C=CCn1c2ccccc2c2nnc(SCC(=O)NC(C(=O)OC)C(C)C)nc21` (configuration not stated), the result was inactive.

On to `C/C(=C\C(=O)c1ccccc1)Nc1cccc(O)c1`, for which the outcome was inactive. The same measure, in the same setting: in the case of `O=C(NCc1ccco1)c1cnn2c(C(F)(F)F)cc(-c3ccco3)nc12` it was “inactive”. The same measure, in the same setting: next, `NC1=NC(c2cn(-c3ccccc3)nc2-c2cccs2)n2c(nc3ccccc32)N1` (configuration not stated): “inactive”. As to `O=S(=O)(Nc1cc(Cl)ccc1N1CCCCC1)c1cccs1`, the outcome was inactive. As for `N#Cc1cn(-c2ccccc2)nc1-c1ccccc1`, the result was inactive. The same measure, in the same setting: next, `Cc1cc(-n2nc(C)cc2C)nc(NS(=O)(=O)c2ccccc2)n1`: “inactive”. On the same count and under the same terms, in the case of `Nc1nc2n(n1)C(c1ccccc1)CC(c1ccc(F)cc1)N2` (configuration not stated) it was “inactive”. On the same count and under the same terms, next, `COc1ccc(OC)c(/C=N/c2oc(-c3ccco3)c(-c3ccco3)c2C#N)c1`: “inactive”.

Turning to `CCCCn1c(=NC(=O)c2cccnc2)c(C(=O)OCC)cc2c(=O)n3ccccc3nc21`, the EC50 was 1070 nM. In the case of `CCn1ncc(C2=NOC(C(=O)NCc3ccccc3)C2)c1C` (configuration not stated), the outcome was inactive. On the same count and under the same terms, next, `COC(=O)c1c(-c2ccccc2)csc1NC(=O)c1ccco1`: “inactive”. On the same count and under the same terms, next, `CCOC(=O)c1cc2c(=O)n3ccccc3nc2n(CCCOC)c1=NC(=O)c1cccnc1`: “inactive”; `Nc1nc(SCc2ccc3c(c2)OCCO3)n[nH]1`: “inactive”; `CCOc1ccc(N/C(SC)=C(/C#N)C(N)=O)cc1`: “inactive”. The same measure, in the same setting: next, `O=C1c2ccccc2-c2onc3ccc(NCCCn4ccnc4)c1c23`: “inactive”. Take `CCOC(=O)Cc1[nH]nc2c1C(c1cccc(OC)c1OC)C(C#N)=C(N)O2` (configuration not stated): the result was inactive. Still for that read-out and setting: next, `NC(=O)c1cc(-c2ccccc2)nc(N2CCCCCC2)n1`: “inactive”; `Cn1c2c(c3ccccc31)CC/C2=N\O`: “inactive”. On the same count and under the same terms, in the case of `O=C(Nc1ncnc2sc3c(c12)CCCCC3)c1ccco1` it was “inactive”; in that of `CCOC(=O)N1CCN(C(=O)CCCn2c(=S)[nH]c3ccccc3c2=O)CC1`, “inactive”; in that of `Cn1c(Cn2c(=O)sc3ccccc32)nnc1SCC(=O)N1CCOCC1`, “inactive”.

`c1ccc(Cn2nnc3c(N4CCc5ccccc54)ncnc32)cc1`: the outcome was inactive. For the compound `CCOc1cc(C2CC(=O)NC(SCC)=C2C#N)ccc1O` (configuration not stated), the outcome was inactive. With `COc1cc2[nH]c(=S)n(C3CCCC3)c(=O)c2cc1OC`, the outcome was inactive. On the same count and under the same terms, in the case of `COc1ccc(-n2nc3ccccc3n2)cc1` it was “inactive”; in that of `Cc1ccc(-c2nc3ncccn3c2NC(=O)C2CC2)cc1`, “inactive”; in that of `CCOC(=O)c1sc(NC(=O)CSc2nncs2)c(C(=O)OCC)c1C`, “inactive”. The same measure, in the same setting: in the case of `CCN(CC)CCOc1c(Br)ccc2c1sc1nc3n(c(=O)c12)CCC3` it was “inactive”. On the same count and under the same terms, in the case of `O=c1[nH]c2cc3c(cc2cc1C(c1nnnn1C1CCCC1)N1CCSCC1)OCCO3` (configuration not stated) it was “inactive”; in that of `COc1cccc(-c2nn3c(-c4cc(C)[nH]n4)nnc3s2)c1`, “inactive”; in that of `COc1ccc(Cc2nnc(NC(=O)c3c(-c4ccccc4)noc3C)s2)cc1`, “inactive”. As to `COC(=O)c1c(-c2ccc(F)cc2)csc1NC(=O)c1ccco1`, the outcome was inactive. Still for that read-out and setting: in the case of `CCOC(=O)c1ccc(N2CN=C3SCC(=O)N3C2)cc1` it was “inactive”.

Regarding `CCC1(CC)C(=O)NC(=NCCc2c[nH]c3ccccc23)NC1=O`, the outcome was inactive.

`COc1ccc2cc3c(N)nn(C(=O)Cc4ccccc4OC)c3nc2c1`: the EC50 was 635 nM.

`NC(=O)NC(=O)Nc1ccccc1Cl`: the outcome was inactive. On the same count and under the same terms, in the case of `OCCNc1ncnc2c1c(-c1ccccc1)c(-c1ccccc1)n2Cc1ccco1` it was “inactive”; in that of `CC(C)Sc1nc2c(c(=O)n1C)SC(C)C2` (configuration not stated), “inactive”.

Take `Cn1c(SCc2ccon2)nc2ccccc2c1=O`: the outcome was inactive. Still for that read-out and setting: in the case of `C=CCNc1sc(C(=O)C(C)(C)C)c(N)c1C#N` it was “inactive”. Take `Cc1nc(N2CCC(C(N)=O)CC2)c2nnn(Cc3ccccc3)c2n1`: the result was inactive. The same measure, in the same setting: in the case of `CCn1nc(C(=O)OCC(=O)N2c3ccccc3CC2C)c2ccccc2c1=O` (configuration not stated) it was “inactive”; in that of `COc1ccc(OC)c(NC(=O)CSc2nc3ccccc3c(=O)n2CCNC(C)=O)c1`, “inactive”; in that of `CCn1c(SCC(=O)Nc2ccccc2N2CCCCC2)nc2c1c(=O)n(C)c(=O)n2C`, “inactive”. Still for that read-out and setting: next, `CC1(C)Cc2c(C#N)c(NC3CCCCC3)nc(-c3ccco3)c2CO1`: “inactive”; `COc1ccc(OC)c(C2=NOC(C(=O)Nc3cccc(C(C)=O)c3)C2)c1` (configuration not stated): “inactive”; `Cc1cccc(-c2c3c(=O)n(C)c(=O)n(C)c3cn2-c2ccccc2O)c1`: “inactive”. On the same count and under the same terms, next, `COc1ccc2nc(SCC(=O)N3CCCCCC3)c(C#N)cc2c1`: “inactive”; `Cc1ccc(-c2cc(-c3ccc4c(c3)OCO4)c(C#N)c(N)n2)o1`: “inactive”. For the compound `O=c1c2ccccc2nc(SCc2cccc(F)c2)n1Cc1ccco1`, the result was inactive. As to `O=C1COc2ccc(C(=O)c3ccccc3)cc2CN1`, the outcome was inactive. The same measure, in the same setting: next, `COc1cc(OC)cc(C(=O)Nn2cc(C(=O)N3CCN(C)CC3)c3ccccc3c2=O)c1`: “inactive”; `CCCn1c(=NC(=O)c2ccco2)c(C(=O)OCC)cc2c(=O)n3ccccc3nc21`: “inactive”. `O=C(CSc1nnc(COc2ccc(F)cc2)o1)N1c2ccccc2CCc2ccccc21`: the outcome was inactive. Same read-out and setting: in the case of `COc1ccc(-c2coc3cc(O)ccc3c2=O)cc1OC` it was “inactive”; in that of `Cc1noc(C)c1CSc1ncnc2ccccc12`, “inactive”; in that of `COc1cccc(NC2=NCC(=O)N2Cc2cccs2)c1`, “inactive”. In the case of `COC(=O)/C(=C1/Oc2cc3c(cc2S1)OCO3)C(F)(F)F`, the result was inactive. The same measure, in the same setting: next, `COc1ccc(C2CC(c3ccc(Cl)cc3Cl)Nc3nc(N)nn32)cc1` (configuration not stated): “inactive”; `COC(=O)c1ccc(C(=O)OC)c(NC(=O)COC(=O)C23CC4CC(CC(O)(C4)C2)C3)c1`: “inactive”; `CSc1nc2c(c(=O)n1-c1ccccc1)SCC2`: “inactive”. For the compound `Cn1cnc2c1c(=O)n(Cc1ccc(F)cc1Cl)c(=O)n2C`, the outcome was inactive.

As for `C=CCSc1nc2ccccc2c(=O)[nH]1`, the result was inactive.

Take `COC(=O)c1cccc(S(=O)(=O)N2CCC(NC(=O)NC34CC5CC(CC(C5)C3)C4)CC2)c1`: the outcome was inactive. Same read-out and setting: next, `CCC(Sc1nc(=O)cc(N)n1CCc1ccccc1)C(=O)Nc1ccccc1C#N` (configuration not stated): “inactive”; `CCOC(=O)c1c(NC(=O)c2cccs2)sc(C)c1CC`: “inactive”. Still for that read-out and setting: in the case of `CCc1ccc2oc(=O)cc(CN3CCOCC3)c2c1` it was “inactive”; in that of `COc1ccc(-c2noc(CCN3C(=O)c4ccccc4C3=O)n2)cc1OC`, “inactive”. The same measure, in the same setting: next, `COc1nc(NCc2ccc(Cl)cc2)nc(OC)n1`: “inactive”; `COc1ccc(CCN(C)C(=O)C2CCCN(Cc3ccc(OC)c(OC)c3)C2)cc1OC` (configuration not stated): “inactive”; `CCOC(=O)c1cnn(-c2cccc(Cl)c2)c1N`: “inactive”. `COc1ccc(C2CC(c3cc(OC)ccc3OC)n3nnnc3N2)cc1` (configuration not stated): the result was inactive. Still for that read-out and setting: in the case of `Cc1cccc(C2CC(c3ccc(F)cc3)Nc3nc(N)nn32)c1` (configuration not stated) it was “inactive”; in that of `CCC(=O)N1CCc2cc(S(=O)(=O)NCCC(=O)NC3CCCc4ccccc43)ccc21` (configuration not stated), “inactive”; in that of `N#Cc1ccc(-c2ccco2)nc1SCc1ccccc1`, “inactive”. Turning to `CCc1nc2ccccc2c(C(=O)OCC(=O)NCc2ccco2)c1C`, the result was inactive. The same measure, in the same setting: next, `CCSc1nc2c(c(=O)n1CC)SC(C)C2` (configuration not stated): “inactive”; `N#CC1=C(N)Oc2n[nH]c(-c3cccs3)c2C1c1ccsc1` (configuration not stated): “inactive”. Take `CCCCN(CC)C(=O)c1ccc(Cl)c(Cl)c1`: the outcome was inactive. Same read-out and setting: next, `CC1(C)Cc2c(C#N)c(N3CCCC3)nc(-c3ccco3)c2CO1`: “inactive”; `CCSC(C)CC1C/C(=N/O)c2c(CC)noc2C1` (configuration not stated): “inactive”.

Broadly, the EC50 is the concentration at which the effect is half-maximal.
